How the values were obtained:
[1] = Distribution of 14C label in soybean plant parts after seed treatment
Experimental: (§1) ^14C-radiolabelled compounds are obtained from Lew Mander (Australian National University). ^14C-GA3 is dissolved in water:ethanol, 80:20, v/v; ^14C-GA9 and ^14C-GA12 are dissolved in 100% ethanol. Seeds of Asgrow 3237 soybeans are treated separately with solutions of each of the ^14C-radiolabelled compounds (1.7-6.8 μg; 10-40 ppm; 111,000-2,000,000 dpm/seed) by placing one to four μl of the dosing solution directly on the seed coat (^14C-GA3, GA9, and GA12), or on the hilum portion of the seed (^14C-GA3). After evaporation of the carrier solvent (approx. one hour), the treated seed is planted in containers containing approximately 30 gm of Metromix-350, and transferred to a growth chamber. Plants are grown under a 12 hour light/12 hour dark regime at 92° F. (33° C.)and 75% humidity. The pattern of uptake and translocation of ^14C-radioactivity in treated seed is monitored up to 12 days past initial treatment. For most experiments, three replicate plants are harvested at one hour after treatment, one day after treatment (DAT), two DAT, three DAT, six or seven DAT, and 12 DAT. At the time of each harvest, plants are divided into leaves, epicotyl, cotyledon, hypocotyl, and roots. The level of ^14C-radioactivity in different plant parts is determined by extraction of plant tissues with aqueous methanol and scintillation counting. The extent of metabolism of the ^14C-labelled GA compounds in planta is determined by HPLC analysis of plant extracts. The details are as follows.
(§2) The general extraction procedure consisted of blending the plant parts in a high speed polytron tissue homogenizer for 1-5 minutes with 10-20 ml of ice-cold methanol:water, 80:20, v/v, followed by vacuum filtration through a Whatman glass fiber filter. The filter cake is re-extracted as necessary using the procedure described above until an insignificant amount of radioactivity is removed. Prior to combining the extracts from each sample, aliquots are weighed and analyzed by liquid scintillation counting (LSC) to determine the amount of extracted radioactivity in each extract. Aliquots of the air-dried filter cakes are combusted and analyzed by LSC in order to determine the amount of non-extracted radioactivity. The extracts are combined and, when necessary, concentrated by rotary evaporation at a bath temperature of less than 35° C. to a small volume for analysis by HPLC to determine the extent of metabolism of the ^14C-labelled GA compounds in planta.

[2] = Half-lives of 14C-labelled GA compounds in planta; settings: Asgrow 3237, soybean (Glycine max), in vivo
Experimental: as §1, with “At the time of each harvest, plants are divided into leaves, epicotyl, cotyledon, hypocotyl, and roots.” left out, “The details are as follows.” left out
as §2, with “The extracts are combined and, when necessary, concentrated by rotary evaporation at a bath temperature of less than 35° C. to a small volume for analysis by HPLC to determine the extent of metabolism of the ^14C-labelled GA compounds in planta.” left out

[3] = test system: constitutively GA-deficient transgenic dwarf soybean line 719; assay: Field trial of seed coating application rates, GA-deficient soybean; assay type: in vivo, Glycine max; settings: seed coating
Experimental: GA3, GA3-3-acetate, GA5, GA9, and GA12 are evaluated in further field trials. […] The objectives of these tests are: 1) to determine if seed coatings, as compared to imbibition, of GA compounds facilitate rescue of constitutively GA-deficient transgenic dwarf soybeans (transgenic lines 719−2 plus 719+17) without causing elongation of wild-type soybeans (line A4922), and 2) to determine the seed treatment rate ranges for each of the selected GA compounds that would provide rescue of constitutively GA-deficient transgenic dwarf soybeans (transgenic lines 719−2 plus 719+17) without causing elongation of wild-type soybeans (line A4922).
Seeds are treated with GA3, GA5, GA9, GA12, and GA3-3-acetate at rates of 0, 0.1, 1, 10, and 100 μg/seed. These GA compounds are applied to the seeds using a Hege 11 seed treater (Hans-Ulrich Hege GmbH & Co., Waldenburg, Germany); 100% acetone is used as the carrier solvent. The amount of liquid introduced into the seed treater is six fluid ounces/100 lbs seed rate. In addition, GA12 is tested at 50 μg/seed. The untreated control (UTC) consisted of dry, untreated seeds. Seeds of constitutively GA-deficient transgenic dwarf soybean line 719 and wild-type A4922 are sown in both light and heavy soil. The planting depth is 0.5 to 1 inch (1.27 to 2.54 cm); watering is via drip irrigation. The experiment is carried out in three repetitions, using 25 seeds/plot (one five foot (152.4 cm) long row) for line 719, and 75 seeds/plot (two eight foot (243.8 cm) rows) for line A4922. Observations included total emergence, number of dwarfs not rescued, uniformity in plant height, average plant height, visual notes, and digital photos.
In all the experiments reported in Tables 17-24, treatments are replicated three times in a randomized block design. Data are analyzed using LSD (least significant difference) 0.05 probability using the PRM 5.0 Statistical Analysis Program (SAS Institute, North Carolina).

[4] = test system: AX5/antisense CPScc soybean line 234 (R3); assay: Hilum seed treatment of epicotyl-intensive GA-deficient soybean, height (FIG. 43); assay type: in vivo, Glycine max; settings: 10 DAP
Experimental: The purpose of this study is to evaluate the ability of four GA compounds, i.e., GA9, GA5, GA3-3-acetate, and GA12, to restore normal growth in AX5/antisense CPScc soybean lines when applied as a seed treatment.
Line 46 plants are R2; Line 234 plants are R3.
The GA compounds are dissolved in ethanol and applied to the hilum of dry seeds as not more than 10 μl droplets with a syringe. If multiple applications are made to seeds, the previous application is allowed to dry before a subsequent application is made.
Seeds are sown 1 inch deep in commercial potting soil (Metromix 200) in 4-inch plastic pots and placed in a greenhouse set for 12 hours artificial light and a temperature regime of 85° F. (29° C.) day and 75° F. night (24° C.). Pots are watered as necessary by overhead hand watering. Hypocotyl and epicotyl measurements are made for each plant at various stages of plant growth.
The lower dashed horizontal line represents the total height of untreated AX5 line 234 soybeans. The upper dashed horizontal line represents the total height of untreated wild-type A4922 soybeans. Measurements are made 10 days after planting.

With `C=C1C[C@]23C[C@@]1(O)CC[C@H]2[C@@]12C=C[C@H](O)[C@@](C)(C(=O)O1)[C@H]2[C@@H]3C(=O)O` [GA3, gibberellic acid] the “^14C Label Distribution (% of dose), Cotyledon” value ([1]; 3 DAP) was 85 % of dose, the “^14C Label Distribution (% of dose), Hypocotyl” value ([1]; 3 DAP) was 1.5 % of dose and the “^14C Label Distribution (% of dose), Root” value ([1]; 3 DAP) was 0.5 % of dose. The “^14C Label Distribution (% of dose), Cotyledon” value ([1]; 12 DAP) was 72 % of dose, the “^14C Label Distribution (% of dose), Epicotyl” value ([1]; 12 DAP) was 0.2 % of dose and the “^14C Label Distribution (% of dose), Hypocotyl” value ([1]; 12 DAP) was 1.4 % of dose. For the same molecule, the “^14C Label Distribution (% of dose), Leaves” value ([1]; 12 DAP) was 0.9 % of dose, the “^14C Label Distribution (% of dose), Root” value ([1]; 12 DAP) was 2.8 % of dose and the half-life [2] was 48 to 72 h. The “719 Height, cm, Heavy soil” value ([3]; 0.1 μg compound per seed) was 5.7 cd cm, the “719 Height, cm, Light soil” value ([3]; 0.1 μg compound per seed) was 5.7 ef cm and the “No. 719 Emerged, Heavy soil” value ([3]; 0.1 μg compound per seed) was 19.7 a-d. The “No. 719 Emerged, Light soil” value ([3]; 0.1 μg compound per seed) was 21.3 abc, the “No. 719 Not Rescued, Heavy soil” value ([3]; 0.1 μg compound per seed) was 0 f and the No. 719 Not Rescued, Light soil ([3]; 0.1 μg compound per seed) was 1. The “719 Height, cm, Heavy soil” value ([3]; 1 μg compound per seed) was 5.3 cde cm, the “719 Height, cm, Light soil” value ([3]; 1 μg compound per seed) was 5.7 ef cm and the “No. 719 Emerged, Heavy soil” value ([3]; 1 μg compound per seed) was 17.3 b-e. For the same molecule, the “No. 719 Emerged, Light soil” value ([3]; 1 μg compound per seed) was 20.7 abc, the “No. 719 Not Rescued, Heavy soil” value ([3]; 1 μg compound per seed) was 0.3 ef and the No. 719 Not Rescued, Light soil ([3]; 1 μg compound per seed) was 0. The “719 Height, cm, Heavy soil” value ([3]; 10 μg compound per seed) was 10.3 a cm, the “719 Height, cm, Light soil” value ([3]; 10 μg compound per seed) was 11.7 bc cm and the “No. 719 Emerged, Heavy soil” value ([3]; 10 μg compound per seed) was 18.3 a-e. The “No. 719 Emerged, Light soil” value ([3]; 10 μg compound per seed) was 21.0 abc, the “No. 719 Not Rescued, Heavy soil” value ([3]; 10 μg compound per seed) was 0 f and the No. 719 Not Rescued, Light soil ([3]; 10 μg compound per seed) was 0. For the same molecule, the “719 Height, cm, Heavy soil” value ([3]; 100 μg compound per seed) was 9.3 ab cm, the “719 Height, cm, Light soil” value ([3]; 100 μg compound per seed) was 13.7 a cm and the “No. 719 Emerged, Heavy soil” value ([3]; 100 μg compound per seed) was 8.0 f. The “No. 719 Emerged, Light soil” value ([3]; 100 μg compound per seed) was 16.7 cd, the “No. 719 Not Rescued, Heavy soil” value ([3]; 100 μg compound per seed) was 0 f and the No. 719 Not Rescued, Light soil ([3]; 100 μg compound per seed) was 0. For the same molecule, the “restoration of height of line 234 soybeans” value ([4]; hypocotyl and epicotyl elongation, hypocotyl to epicotyl ratio not maintained) was “restore normal height to line 234 soybeans” and the “response of line 234 height” value ([4]; seed treatment rates between 0.1 and 1 μg/seed) was “generally similar response”.
